# Measured values: patent US8992982B2, “Formulation of indomethacin” (Iceutica Pty Ltd., priority 2009, dated 2015)
# System: pain after surgical removal of impacted third molars
# Test: Phase 2 dental pain study: VAS pain intensity (VAS score, VASPID, VASSPID)
# Format: in vivo, human
# Set-up: VASPID, Median / VASPID, Mean / VAS pain intensity score, Median / VASSPID-8, Median: scale not given here
# Procedure: On Day 1, eligible subjects underwent extraction of 2 or more third molars, at least 1 of which had to be a fully or partially bone-impacted mandibular molar. If only 2 molars were removed, then they had to be ipsilateral.
# Subjects assessed their baseline pain intensity (VAS) before receiving study drug (predose, Time 0) and their pain intensity (VAS) and pain relief (5-point categorical scale) at 15, 30, and 45 minutes and 1, 1.5, 2, 3, 4, 5, 6, 7, and 8 hours after Time 0 and immediately before the first dose of rescue medication. The 2-stopwatch method was used to record the time to perceptible and time to meaningful pain relief, respectively. Acetaminophen (1000 mg) was permitted as the initial rescue medication. Subjects were encouraged to wait at least 60 minutes after receiving study drug before taking rescue medication. […] Other restrictions included the following: no alcohol use from 24 hours before surgery until discharge on Day 1; nothing by mouth (NPO) from midnight before surgery until 1 hour after surgery; clear liquids only from 1 hour after surgery until 1 hour after dosing; and advancement of diet 1 hour after dosing according to standard practice.
# The secondary efficacy endpoints were as follows: • TOTPAR over 0 to 4 hours (TOTPAR-4) after Time 0 • Visual Analogue Scale (VAS) pain intensity difference (VASPID) at each scheduled time point after Time 0 • Time to onset of analgesia (measured as time to perceptible pain relief confirmed by meaningful pain relief) • VAS pain intensity score at each scheduled time point • VAS summed pain intensity difference (VASSPID) over 0 to 4 hours (VASSPID-4) and over 0 to 8 hours (VASSPID-8) after Time 0 • Pain relief score at each scheduled time point after Time 0 • Peak pain relief • Time to peak pain relief • Time to first perceptible pain relief • Time to meaningful pain relief • Proportion of subjects using rescue medication • Time to first use of rescue medication (duration of analgesia) • Patient's global evaluation of study drug Safety:
# For continuous secondary endpoints such as pain intensity score, VASPID at each scheduled time point, peak pain intensity, TOTPAR-4, VASSPID-4, and VASSPID-8, descriptive statistics (e.g., mean, standard error, median, minimum, and maximum) were provided for each treatment regimen. Nominal P values from 2-sample tests comparing the placebo group with other treatment groups were provided, but no formal statistical inferences were drawn on the basis of these tests.
# For pain intensity, missing observations were imputed using a baseline-observation-carried-forward (BOCF) approach for subjects who withdrew from the study due to lack of efficacy or an AE/intolerance to study drug. The BOCF imputation was applied in place of all scheduled assessments after the time of early termination due to lack of efficacy or an AE/intolerance to study drug using the baseline observation taken before Time 0.
# For subjects who withdrew from the study for reasons other than lack of efficacy or an AE/intolerance to study drug, missing observations for pain intensity and pain relief were imputed using a last-observation-carried-forward (LOCF) approach. The LOCF imputation was applied in place of all scheduled assessments after the time of early termination for reasons other than lack of efficacy or an AE/intolerance to study drug.
# For subjects who took any dose of rescue medication, subsequent measures after the first dose of rescue mediation were disregarded. Instead, all scheduled assessments after the first dose of rescue medication were imputed using BOCF and the baseline observation taken before Time 0. (Baseline value for pain relief was 0.)
# [1] = 15 minutes after Time 0, ITT, 100-mm VAS
smiles,measurement,setting,value
Cc1ccc(-c2cc(C(F)(F)F)nn2-c2ccc(S(N)(=O)=O)cc2)cc1 [Celecoxib],"VASSPID-4, Mean (SD)","0 to 4 hours after Time 0, ITT",127.971 (99.1934)
same,"VASSPID-4, Median","0 to 4 hours after Time 0, ITT",140.250
same,"VASSPID-8, Mean (SD)","0 to 8 hours after Time 0, ITT",284.265 (229.4447)
same,"VASSPID-8, Median","0 to 8 hours after Time 0, ITT",346.500
same,"VAS pain intensity score, Median","15 minutes after Time 0, ITT",71.00
same,"VASPID, Median","15 minutes after Time 0, ITT",1.00
same,"VAS pain intensity score, Mean",[1],70.55
same,"VASPID, Mean",[1],3.35
same,"VAS pain intensity score, Mean","30 minutes after Time 0, ITT",67.25
same,"VAS pain intensity score, Median","30 minutes after Time 0, ITT",66.00
same,"VASPID, Mean","30 minutes after Time 0, ITT",6.65
same,"VASPID, Median","30 minutes after Time 0, ITT",3.00
same,"VAS pain intensity score, Mean","45 minutes after Time 0, ITT",57.47
same,"VAS pain intensity score, Median","45 minutes after Time 0, ITT",61.00
same,"VASPID, Mean","45 minutes after Time 0, ITT",16.43
same,"VASPID, Median","45 minutes after Time 0, ITT",10.00
same,"VAS pain intensity score, Mean","1 hour after Time 0, ITT",49.08
same,"VAS pain intensity score, Median","1 hour after Time 0, ITT",50.00
same,"VASPID, Mean","1 hour after Time 0, ITT",24.82
same,"VASPID, Median","1 hour after Time 0, ITT",17.00
same,"VAS pain intensity score, Mean","2 hours after Time 0, ITT",36.65
same,"VAS pain intensity score, Median","2 hours after Time 0, ITT",36.00
same,"VASPID, Mean","2 hours after Time 0, ITT",37.25
same,"VASPID, Median","2 hours after Time 0, ITT",32.00
same,"VAS pain intensity score, Mean","3 hours after Time 0, ITT",32.29
same,"VAS pain intensity score, Median","3 hours after Time 0, ITT",28.00
same,"VASPID, Mean","3 hours after Time 0, ITT",41.61
same,"VASPID, Median","3 hours after Time 0, ITT",50.00
same,"VAS pain intensity score, Mean","4 hours after Time 0, ITT",33.94
same,"VAS pain intensity score, Median","4 hours after Time 0, ITT",25.00
same,"VASPID, Mean","4 hours after Time 0, ITT",39.96
same,"VASPID, Median","4 hours after Time 0, ITT",46.00
same,"VAS pain intensity score, Mean","5 hours after Time 0, ITT",33.69
same,"VAS pain intensity score, Median","5 hours after Time 0, ITT",22.00
same,"VASPID, Mean","5 hours after Time 0, ITT",40.22
same,"VASPID, Median","5 hours after Time 0, ITT",50.00
same,"VAS pain intensity score, Mean","6 hours after Time 0, ITT",35.06
same,"VAS pain intensity score, Median","6 hours after Time 0, ITT",20.00
same,"VASPID, Mean","6 hours after Time 0, ITT",38.84
same,"VASPID, Median","6 hours after Time 0, ITT",50.00
same,"VAS pain intensity score, Mean","7 hours after Time 0, ITT",35.55
same,"VAS pain intensity score, Median","7 hours after Time 0, ITT",21.00
same,"VASPID, Mean","7 hours after Time 0, ITT",38.35
same,"VASPID, Median","7 hours after Time 0, ITT",44.00
same,"VAS pain intensity score, Mean","8 hours after Time 0, ITT",35.02
same,"VAS pain intensity score, Median","8 hours after Time 0, ITT",22.0
same,"VASPID, Mean","8 hours after Time 0, ITT",38.88
same,"VASPID, Median","8 hours after Time 0, ITT",49.00
same,"VAS pain intensity score, Mean","[…] after Time 0, ITT",43.98
same,"VAS pain intensity score, Median","[…] after Time 0, ITT",48.00
same,"VASPID, Mean","[…] after Time 0, ITT",29.92
same,"VASPID, Median","[…] after Time 0, ITT",26.00
same,Time point from which mean VASPID was statistically significantly greater and mean VAS pain intensity less than placebo,onward after Time 0,≥ 30 min
